Assay results taken from ChEMBL document CHEMBL3112418, “Synthesis of novel 1,2,3-triazole tagged pyrazolo[3,4-b]pyridine derivatives and their cytotoxic activity” (Bioorg Med Chem Lett, 2014).
≈ marks a conversion by molar mass, not a printed value. Calls of active or inactive are those of the source. The rule behind the calls is not given here.

System: HL-60
Assay: Cytotoxicity against human HL60 cells assessed as reduction in cell viability at 100 ug/ml after 24 hrs by MTT assay
Format: functional, cell-based
Settings: not given
For `Nc1nn(Cc2cn(CCC(F)(F)C(F)(F)C(F)(F)C(F)(F)C(F)(F)C(F)(F)C(F)(F)C(F)(F)F)nn2)c2nc(-c3ccccc3)cc(C(F)(F)F)c12`, the Activity was “inactive”.

System: U-937
Assay: Cytotoxicity against human U937 cells assessed as reduction in cell viability at 100 ug/ml after 24 hrs by MTT assay
Format: functional, cell-based
Settings: not given
With `Nc1nn(Cc2cn(CC(=O)Nc3ccccc3Br)nn2)c2nc(-c3ccccc3)cc(C(F)(F)F)c12` the Activity was “inactive”. With `Nc1nn(Cc2cn(CC(=O)Nc3ccc(F)cc3)nn2)c2nc(-c3ccccc3)cc(C(F)(F)F)c12` the Activity was “inactive”. With `Nc1nn(Cc2cn(CC(=O)Nc3ccccc3)nn2)c2nc(-c3ccccc3)cc(C(F)(F)F)c12` the Activity was “inactive”. For `CCCCn1cc(Cn2nc(N)c3c(C(F)(F)F)cc(-c4ccccc4)nc32)nn1`, the Activity was “inactive”. In the case of `Nc1nn(Cc2cn(CCC(F)(F)C(F)(F)C(F)(F)C(F)(F)C(F)(F)C(F)(F)C(F)(F)C(F)(F)F)nn2)c2nc(-c3ccccc3)cc(C(F)(F)F)c12`, the Activity is reported as “inactive”.

System: HL-60
Assay: Cytotoxicity against human HL60 cells assessed as reduction in cell viability after 24 hrs by MTT assay
Format: functional, cell-based
Settings: HL-60, 24 h
`Nc1nn(Cc2cn(CC(=O)Nc3cccc(F)c3)nn2)c2nc(-c3ccccc3)cc(C(F)(F)F)c12` gave an IC50 of 63.9 µg/mL (≈ 125 µM). `CCCCCCCCCCn1cc(Cn2nc(N)c3c(C(F)(F)F)cc(-c4ccccc4)nc32)nn1` showed an IC50 of 29.9 µg/mL (≈ 59.8 µM). With `Nc1nn(Cc2cn(-c3ccc(F)c(Cl)c3)nn2)c2nc(-c3ccccc3)cc(C(F)(F)F)c12` the IC50 was 35 µg/mL (≈ 71.8 µM). `Nc1nn(Cc2cn(CC(=O)Nc3c(F)cccc3F)nn2)c2nc(-c3ccccc3)cc(C(F)(F)F)c12` showed an IC50 of 32.8 µg/mL (≈ 62 µM). With `Nc1nn(Cc2cn(CCC(F)(F)C(F)(F)C(F)(F)C(F)(F)C(F)(F)C(F)(F)F)nn2)c2nc(-c3ccccc3)cc(C(F)(F)F)c12` the IC50 was 97.6 µg/mL (≈ 138 µM). `Nc1nn(Cc2cn(CC(=O)Nc3ccc(F)cc3Br)nn2)c2nc(-c3ccccc3)cc(C(F)(F)F)c12` showed an IC50 of 63.6 µg/mL (≈ 108 µM). Work on `COc1cc([C@@H]2c3cc4c(cc3[C@@H](O[C@@H]3O[C@@H]5CO[C@@H](C)O[C@H]5[C@H](O)[C@H]3O)[C@H]3COC(=O)[C@H]23)OCO4)cc(OC)c1O` [ETOPOSIDE] yielded an IC50 of 2.13 µg/mL (≈ 3.62 µM). In the case of `Nc1nn(Cc2cn(CC(=O)Nc3ccccc3Br)nn2)c2nc(-c3ccccc3)cc(C(F)(F)F)c12`, the IC50 is reported as 27.2 µg/mL (≈ 47.6 µM). For `Nc1nn(Cc2cn(CC(=O)Nc3ccc(F)cc3)nn2)c2nc(-c3ccccc3)cc(C(F)(F)F)c12`, the IC50 was 44.8 µg/mL (≈ 87.7 µM). In the case of `Nc1nn(Cc2cn(CC(=O)Nc3ccccc3)nn2)c2nc(-c3ccccc3)cc(C(F)(F)F)c12`, the IC50 is reported as 96.3 µg/mL (≈ 196 µM). `CCCCn1cc(Cn2nc(N)c3c(C(F)(F)F)cc(-c4ccccc4)nc32)nn1` showed an IC50 of 36.7 µg/mL (≈ 88.4 µM). For `Nc1nn(Cc2cn(CC(=O)NC3CCCCC3)nn2)c2nc(-c3ccccc3)cc(C(F)(F)F)c12`, the IC50 was 42.9 µg/mL (≈ 86.2 µM).

System: B16-F10
Assay: Cytotoxicity against mouse B16F10 cells assessed as reduction in cell viability after 24 hrs by MTT assay
Format: functional, cell-based
Settings: B16-F10, 24 h
`CCCCCCCCCCn1cc(Cn2nc(N)c3c(C(F)(F)F)cc(-c4ccccc4)nc32)nn1` gave an IC50 of 84.9 µg/mL (≈ 170 µM). `Nc1nn(Cc2cn(-c3ccc(O)c([N+](=O)[O-])c3)nn2)c2nc(-c3ccccc3)cc(C(F)(F)F)c12` showed an IC50 of 42.3 µg/mL (≈ 85.1 µM). For `Nc1nn(Cc2cn(CC(=O)Nc3c(F)cccc3F)nn2)c2nc(-c3ccccc3)cc(C(F)(F)F)c12`, the IC50 was 41.6 µg/mL (≈ 78.7 µM). With `Nc1nn(Cc2cn(CC(=O)Nc3ccc(F)cc3Br)nn2)c2nc(-c3ccccc3)cc(C(F)(F)F)c12` the IC50 was 98 µg/mL (≈ 166 µM). With `COc1cc([C@@H]2c3cc4c(cc3[C@@H](O[C@@H]3O[C@@H]5CO[C@@H](C)O[C@H]5[C@H](O)[C@H]3O)[C@H]3COC(=O)[C@H]23)OCO4)cc(OC)c1O` [ETOPOSIDE] the IC50 was 3.8 µg/mL (≈ 6.46 µM). With `Nc1nn(Cc2cn(CC(=O)NC3CCCCC3)nn2)c2nc(-c3ccccc3)cc(C(F)(F)F)c12` the IC50 was 99.1 µg/mL (≈ 199 µM).

System: not listed separately
Assay: Cytotoxicity against human U937 cells assessed as reduction in cell viability after 24 hrs by MTT assay
Format: functional, cell-based
Settings: U-937, 24 h
With `Nc1nn(Cc2cn(CC(=O)Nc3cccc(F)c3)nn2)c2nc(-c3ccccc3)cc(C(F)(F)F)c12` the IC50 was 43.5 µg/mL (≈ 85.3 µM). With `CCCCCCCCCCn1cc(Cn2nc(N)c3c(C(F)(F)F)cc(-c4ccccc4)nc32)nn1` the IC50 was 27.1 µg/mL (≈ 54.3 µM). `Nc1nn(Cc2cn(-c3ccc(O)c([N+](=O)[O-])c3)nn2)c2nc(-c3ccccc3)cc(C(F)(F)F)c12` showed an IC50 of 41.3 µg/mL (≈ 83.1 µM). For `Nc1nn(Cc2cn(-c3ccc(F)c(Cl)c3)nn2)c2nc(-c3ccccc3)cc(C(F)(F)F)c12`, the IC50 was 99.1 µg/mL (≈ 203 µM). With `Nc1nn(Cc2cn(CC(=O)Nc3c(F)cccc3F)nn2)c2nc(-c3ccccc3)cc(C(F)(F)F)c12` the IC50 was 30.6 µg/mL (≈ 58 µM). `Nc1nn(Cc2cn(CCC(F)(F)C(F)(F)C(F)(F)C(F)(F)C(F)(F)C(F)(F)F)nn2)c2nc(-c3ccccc3)cc(C(F)(F)F)c12` showed an IC50 of 98.2 µg/mL (≈ 139 µM). In the case of `Nc1nn(Cc2cn(CC(=O)Nc3ccc(F)cc3Br)nn2)c2nc(-c3ccccc3)cc(C(F)(F)F)c12`, the IC50 is reported as 98.3 µg/mL (≈ 167 µM). With `COc1cc([C@@H]2c3cc4c(cc3[C@@H](O[C@@H]3O[C@@H]5CO[C@@H](C)O[C@H]5[C@H](O)[C@H]3O)[C@H]3COC(=O)[C@H]23)OCO4)cc(OC)c1O` [ETOPOSIDE] the IC50 was 6.7 µg/mL (≈ 11.4 µM). With `Nc1nn(Cc2cn(CC(=O)NC3CCCCC3)nn2)c2nc(-c3ccccc3)cc(C(F)(F)F)c12` the IC50 was 89 µg/mL (≈ 179 µM).

System: THP-1
Assay: Cytotoxicity against human THP1 cells assessed as reduction in cell viability after 24 hrs by MTT assay
Format: functional, cell-based
Settings: THP-1, 24 h
In the case of `Nc1nn(Cc2cn(CC(=O)Nc3cccc(F)c3)nn2)c2nc(-c3ccccc3)cc(C(F)(F)F)c12`, the IC50 is reported as 99.5 µg/mL (≈ 195 µM). In the case of `CCCCCCCCCCn1cc(Cn2nc(N)c3c(C(F)(F)F)cc(-c4ccccc4)nc32)nn1`, the IC50 is reported as 48.7 µg/mL (≈ 97.4 µM). With `Nc1nn(Cc2cn(-c3ccc(O)c([N+](=O)[O-])c3)nn2)c2nc(-c3ccccc3)cc(C(F)(F)F)c12` the IC50 was 36.2 µg/mL (≈ 73 µM). `Nc1nn(Cc2cn(CC(=O)Nc3c(F)cccc3F)nn2)c2nc(-c3ccccc3)cc(C(F)(F)F)c12` gave an IC50 of 43.3 µg/mL (≈ 81.9 µM). Work on `Nc1nn(Cc2cn(CC(=O)Nc3ccc(F)cc3Br)nn2)c2nc(-c3ccccc3)cc(C(F)(F)F)c12` yielded an IC50 of 65.6 µg/mL (≈ 111 µM). Work on `COc1cc([C@@H]2c3cc4c(cc3[C@@H](O[C@@H]3O[C@@H]5CO[C@@H](C)O[C@H]5[C@H](O)[C@H]3O)[C@H]3COC(=O)[C@H]23)OCO4)cc(OC)c1O` [ETOPOSIDE] yielded an IC50 of 6.34 µg/mL (≈ 10.8 µM). `Nc1nn(Cc2cn(CC(=O)Nc3ccccc3Br)nn2)c2nc(-c3ccccc3)cc(C(F)(F)F)c12` gave an IC50 of 95.3 µg/mL (≈ 167 µM). `Nc1nn(Cc2cn(CC(=O)Nc3ccc(F)cc3)nn2)c2nc(-c3ccccc3)cc(C(F)(F)F)c12` gave an IC50 of 49.5 µg/mL (≈ 97.1 µM). In the case of `Nc1nn(Cc2cn(CC(=O)Nc3ccccc3)nn2)c2nc(-c3ccccc3)cc(C(F)(F)F)c12`, the IC50 is reported as 54.6 µg/mL (≈ 111 µM). With `CCCCn1cc(Cn2nc(N)c3c(C(F)(F)F)cc(-c4ccccc4)nc32)nn1` the IC50 was 46.1 µg/mL (≈ 111 µM). Work on `Nc1nn(Cc2cn(CC(=O)NC3CCCCC3)nn2)c2nc(-c3ccccc3)cc(C(F)(F)F)c12` yielded an IC50 of 64.8 µg/mL (≈ 130 µM).

System: THP-1
Assay: Cytotoxicity against human THP1 cells assessed as reduction in cell viability at 100 ug/ml after 24 hrs by MTT assay
Format: functional, cell-based
Settings: not given
With `Nc1nn(Cc2cn(-c3ccc(F)c(Cl)c3)nn2)c2nc(-c3ccccc3)cc(C(F)(F)F)c12` the Activity was “inactive”. With `Nc1nn(Cc2cn(CCC(F)(F)C(F)(F)C(F)(F)C(F)(F)C(F)(F)C(F)(F)F)nn2)c2nc(-c3ccccc3)cc(C(F)(F)F)c12` the Activity was “inactive”. With `Nc1nn(Cc2cn(CCC(F)(F)C(F)(F)C(F)(F)C(F)(F)C(F)(F)C(F)(F)C(F)(F)C(F)(F)F)nn2)c2nc(-c3ccccc3)cc(C(F)(F)F)c12` the Activity was “inactive”.

System: B16-F10
Assay: Cytotoxicity against mouse B16F10 cells assessed as reduction in cell viability at 100 ug/ml after 24 hrs by MTT assay
Format: functional, cell-based
Settings: not given
In the case of `Nc1nn(Cc2cn(CC(=O)Nc3cccc(F)c3)nn2)c2nc(-c3ccccc3)cc(C(F)(F)F)c12`, the Activity is reported as “inactive”. In the case of `Nc1nn(Cc2cn(-c3ccc(F)c(Cl)c3)nn2)c2nc(-c3ccccc3)cc(C(F)(F)F)c12`, the Activity is reported as “inactive”. In the case of `Nc1nn(Cc2cn(CCC(F)(F)C(F)(F)C(F)(F)C(F)(F)C(F)(F)C(F)(F)F)nn2)c2nc(-c3ccccc3)cc(C(F)(F)F)c12`, the Activity is reported as “inactive”. For `Nc1nn(Cc2cn(CC(=O)Nc3ccccc3Br)nn2)c2nc(-c3ccccc3)cc(C(F)(F)F)c12`, the Activity was “inactive”. For `Nc1nn(Cc2cn(CC(=O)Nc3ccc(F)cc3)nn2)c2nc(-c3ccccc3)cc(C(F)(F)F)c12`, the Activity was “inactive”. In the case of `Nc1nn(Cc2cn(CC(=O)Nc3ccccc3)nn2)c2nc(-c3ccccc3)cc(C(F)(F)F)c12`, the Activity is reported as “inactive”. For `CCCCn1cc(Cn2nc(N)c3c(C(F)(F)F)cc(-c4ccccc4)nc32)nn1`, the Activity was “inactive”. In the case of `Nc1nn(Cc2cn(CCC(F)(F)C(F)(F)C(F)(F)C(F)(F)C(F)(F)C(F)(F)C(F)(F)C(F)(F)F)nn2)c2nc(-c3ccccc3)cc(C(F)(F)F)c12`, the Activity is reported as “inactive”.
